# Data published in US8835629B2, “Anti-cancer agents” (The Walter and Eliza Hall Institute of Medical Research, priority 2010, dated 2014).
# “Also recorded” adds a separate entry of the source.
# How the values were obtained:
# LIM 1215 = test: MTT cell proliferation assay, LIM 1215; assay type: cell-based; settings: LIM1215, 72 h; LIM 1215 human colorectal carcinoma; MTT after 3 days of incubation; read-out: IC50, inhibition of proliferation
# Procedure: (§1) Compound 2 was tested on a series of cell lines to determine its activity and selectivity (Table 2). Cell proliferation was measured using the MTT assay (for protocol see Example 2.6) after 3 days of incubation with the inhibitor.
# (§2) • Cells plated at […] in 100 μl medium+5% FCS (+Adds^1): • Cells incubated overnight: • Titrate inhibitors in a fresh plate in 150 μl medium • Transfer 100 μl titrated compounds to matching wells of the cell plate. • Incubate a further 4 days: • Add 10 μl MTS^2 or MTT^3 for 1.5 to 2 hours and read on Multiscanner (wavelengths 492/690) ^1 Additives for culture of LIM cell lines: 10 μM thioglycerol, 0.025 U/ml insulin, 1 μg/ml hydrocortisone. ^2 3-(4,5-dimethylthiazol-2-yl)-5-(3-carboxymethoxyphenyl)-2-(4-sulfophenyl)-2H-tetrazolium. ^3 3-(4,5-Dimethylthiazol-2-yl)-2,5-diphenyltetrazolium bromide
# (§3) Cells are trypsinized and washed ×2 in medium+5% FCS and plate out at 10^4 cells per well in 100 μl.
# (§4) Incubate plates o/n 37° C.+5%-10% CO2 incubator.
# (§5) Inhibitors are dissolved in DMSO to make 10 mM stocks and titrated in a 96 well plate in duplicate to use as the stock for the test plate. […]
# (§6) Read OD of plates on Thermo Multiskan Ex, at 560/690 nm.
# BaF/3 = test: MTT cell proliferation assay, BaF/3; assay type: cell-based; settings: Mus musculus, BaF3, 72 h; BaF/3 murine B-cell progenitor line; MTT after 3 days of incubation; read-out: IC50, inhibition of proliferation
# Procedure: as §1, §2, §3, §4, §5, §6
# MDA-MB-231 = test: Antimitotic effects (G2/M cell cycle block, DNA staining, ModFit) on MDA-MB-231; assay type: cell-based, human
# Excerpt: For the initial studies two colon carcinoma cell lines (LIM1215 and SW480) and two breast cancer cell lines (MDA-MB-231 and MCF-7) were used. Taxol was used as comparator in these experiments (Table 1).
# [1] = system: H1437 (non-small cell lung cancer cell line) tumours; test: Tumor xenograft study with H1437; assay type: in vivo, Balb/c nu/nu mice
# Procedure: FIG. 10: H1437 tumor growth in nude mice. Tumor diameters were measured with external callipers every three days and tumor volume calculated with the formula: π/6×(L×W2).
# Mice: Balb/c nu/nu male; 8 controls and 8 treated; 5 weeks old.
# Cells inoculated: H1437 (non-small cell lung cancer cell line) at 2×10^6 cells/tumour; two tumours per mouse.
# Dose: Compound 2 at 20 mg/kg=100 μl of 4 mg/ml in water for injection per 20 g mouse. Control mice were injected with 100 μl water for injection.
# Treatment and monitoring: Treatment commenced at Day 5 after inoculation. Mice were injected SC in abdomen three times per week, on alternating sides. Mice were weighed; tumour diameters measured in two dimensions and the health of the mice was monitored. Injections correspond to data points on the plots, with an additional treatment on Day 14 when no measurements were made.
# SW 480 = test: MTT cell proliferation assay, SW 480; assay type: cell-based; settings: SW480, 72 h; SW 480 human colorectal carcinoma; MTT after 3 days of incubation; read-out: IC50, inhibition of proliferation
# Procedure: as §1, §2, §3, §4, §5, §6
# [2] = system: LIM 2537 (colon carcinoma cell line) tumors; test: Tumor xenograft study with LIM 2537 cells; assay type: in vivo, BALB/c nude mice; settings: 15 mg/kg SC
# Procedure: FIG. 7: LIM2537 tumor growth in nude mice. Tumor diameters were measured with external calipers every three days and tumor volume calculated with the formula: π/6×(L×W^2).
# The mice were inoculated with 3×10^6 cells per tumor in 100 μl PBS, one tumor on each flank subcutaneously (SC). Treatments were started on the third day after inoculation with either vehicle control (VC) or 100 μl of drug at 3 mg/ml in aqueous solution giving a dose of 15 mg/kg. Mice were injected SC in the abdomen, three times per week for the duration of the experiment. The mice were monitored for body weight, tumor volume and appearance, and for any adverse reactions to the drug. The experiment was terminated after 33 days and the control group euthanized, as the tumor burden in that group had reached the maximum allowed. The remaining mice were then left without treatment for a further 9 days to monitor resumption of tumor growth.
# [3] = Dose escalation in mice (tolerability and toxicity); assay type: in vivo
# Procedure: Compound 1 was initially tested for tolerability and toxicity in mice. C57Bl/6 mice (aged 8-12 weeks) were injected subcutaneously with escalating doses of Compound 1 in a constant volume of DMSO. Mice were sacrificed 24 hrs post-injection. There were no adverse effects of doses up to 80 mg/kg within this time-frame. Thus the compound is well tolerated at doses that far exceed the IC50 observed “in vitro”.
# These minor skin lesions healed readily within 2-3 days.
# LIM 2537 = test: MTT cell proliferation assay, LIM 2537; assay type: cell-based; settings: 72 h; LIM 2537 human colorectal carcinoma; MTT after 3 days of incubation; read-out: IC50, inhibition of proliferation
# Procedure: as §1, §2, §3, §4, §5, §6
# LIM 2405 = test: MTT cell proliferation assay, LIM 2405; assay type: cell-based; settings: 72 h; LIM 2405 human colorectal carcinoma; MTT after 3 days of incubation; read-out: IC50, inhibition of proliferation
# Procedure: as §1, §2, §3, §4, §5, §6
structure (smiles),measurement,setting,value
"COc1ccc(CNc2nc(NCc3ccc(CN)cc3)nc(NN3CC(=O)NC3=O)n2)cc1 (single isomer, unassigned) [Compound 2, 1-[4-(4-aminomethyl-benzylamino)-6-(4-methoxybenzylamino)-{1,3,5}-triazin-2-yl-amino]-imidazolidine-2,4-dione]",IC50,LIM 1215,0.09 µM
same,IC50,BaF/3,0.03 µM
same,% of Taxol (proportion of cells in G2M test/proportion of cells in G2M Taxol),"MDA-MB-231; 24 hrs, standard 1 μM Taxol",103%
same,IC50,"MDA-MB-231; Homo sapiens, inhibitors added to cells in log-growth for 24 hrs, read-out: IC50 for progression through the cell cycle",0.009 µM
same,Tumour growth (tumour volume),"[1]; 20 mg/kg SC three times per week from day 5, terminated at 26 days",Clear difference; also recorded: significant difference in volume between control and treated tumours
same,Size of dissected tumours,"[1]; 20 mg/kg three times per week, after sacrifice",clear difference in size
same,IC50,SW 480,0.03 µM
same,Tumor growth (tumor volume),"[2]; 3 injections per week from day 3, 33 days",significantly reduced the rate of growth of the tumors; also recorded: successful in slowing the growth of LIM 2537 cells
same,Mouse body weights,[2]; three times per week,not affected
same,Adverse reaction to the drug,"[2]; three times per week, aqueous formulation",no long term adverse reaction
same,Time for healing of minor skin lesions,"[3]; BALB/c nude, mouse, in vivo, 20 mg/kg",2 to 3 days
same,Effect at injection site,[3]; at 21.5 and 64.5 mg/kg,indications of skin thinning at the injection site in some mice
same,Doses with no adverse effects in outward health or behaviour,"[3]; mice, for 4 days",up to 64.5 mg/kg
same,Skin effect in BALB/c nude mice,"[3]; mouse, in vivo, 20 mg/kg",some skin lesions
same,IC50,LIM 2537,0.07 µM
same,IC50,LIM 2405,0.03 µM
